Experiments:
[1] = cited from earlier work; for plasma level: rats, within 30 minutes following oral administration of 500 mg/kg NACA; for detection in the brain: within 30 minutes following oral administration of NACA
[2] = Evaluation of retinal penetration of NACA: NACA/NAC levels in plasma, aqueous, vitreous and retina after 20 mg/mL NACA in drinking water for 7 days; format: in vivo, mice (rd10 and wild type C57/BL6); conditions: for mean level in aqueous humor compared with plasma: 20 mg/mL NACA in drinking water (FIG. 2); for measurability in the retina: animals treated with NACA, N=20 eyes per strain (FIG. 4); for mean level in retina compared with plasma: either type of mice (FIG. 4 compared to FIG. 1); for mean retina levels: 20 mg/mL NACA in drinking water P28-P35, estimated dose 60-80 mg/day
Procedure: The objective of this study was to determine retinal levels of NACA/NAC after administration of 20 mg/mL NACA in drinking water for 7 days in a mouse model of RP and in wild type mice. This experiment was designed to provide rapid confirmation that NACA and/or NAC penetrate the retina following oral administration and to allow comparison of the tissue levels of NACA and NAC in vitreous and retina to plasma. It also provided a comparison of retinal penetration in mice with RP and wild type mice to determine if the breakdown in the blood-retinal barrier in RP affects the levels of NACA in the retina.
Animals and Treatments. Mice were treated in accordance with the recommendations of the Association for Research in Vision and Ophthalmology. Litters of homozygous rd10/rd10 mice (B6.CXB1-Pde6brd10/J) and wild type C57/BL6 mice (The Jackson Laboratory, Bar Harbor, Me.) were used for these studies.
Starting on post-natal day 28 (P28), animals were given normal drinking water (controls, n=10 for each strain) or water containing 20 mg/ml NACA (n=10 for each strain).
Analysis of NACA and NAC. Upon sacrifice of the mice on P35 (post-natal day 35), retina, aqueous, vitreous and plasma were collected, weighed, and stabilized as quickly as possible and stored at −80° C. prior to shipment to AIT Bioscience, LLC (Indianapolis, Ind.). The qualified bioanalytical method (BAM.0445.01) for the quantitation of total NAC NACA in K2EDTA was based on derivatization, protein precipitation extraction, and LC-MS/MS instrumental analysis. Any disulfides were reduced to free thiols and subsequently reacted with 2-chloro-1-methylpyridinium iodide (CMPI) to form stable thioethers. The thioether derivatives were detected by LC-MS/MS. Stable label isotope internal standards were used. The method covered a concentration range from 50.0 to 50,000 ng/mL.
Evaluation of Retinal Penetration of NACA. To determine retinal levels of NACA/NAC after administration of 20 mg/mL NACA in drinking water for 7 days. This experiment was designed to provide rapid confirmation that NACA penetrates the retina following oral administration and to compare levels of NACA and its major metabolite, NAC. in retina, aqueous humor, vitreous humor and plasma. This experiment was also designed to evaluate if the breakdown in the blood-retinal barrier in RP (simulated by the rd10 mice) affects the levels of NACA in the retina by comparing animals with RP to wild type mice.
Rd10 and C57BL/6 wild type mice began treatment at P28 (post-natal day 28), at P35 mice were euthanized and plasma, vitreous and retina samples were sent to AITBioscences (Indianapolis, Ind.) for determination of NACA and NAC levels by a validated method using high-pressure liquid chromatography with tandem mass spectrometric/mass spectrometric detection (LCMS). Experimental groups: (n=10/group). The research was performed in 4 discrete treatment groups: • 1. Rd10 allowed to freely drink NACA 20 mg/mL-spiked drinking water with measurements at P35; • 2. Rd10 allowed to freely drink untreated water with measurements at P35; • 3. C57/BL6 NACA 20 mg/mL in drinking water measurements at P35; • 4. C57/BL6 allowed to freely drink untreated water with measurements at P35.

[3] = oral formulations; cited from earlier work
cone survival = conditions: orally administered; cited from earlier work
[4] = system: human retinal pigment epithelial cells; conditions: cited from earlier work
[5] = system: mice exposed to phototoxic doses of light; conditions: cited from earlier work
rd10 mice = conditions: 7 mg/mL NACA versus 20 mg/mL NAC in drinking water, P35 and P50; cited from earlier work

Compound | plasma level [1] [µM] | detection in the brain [1] | mean level in aqueous humor compared with plasma [2] | measurability in the retina [2] | mean level in retina compared with plasma [2] | systemic bioavailability for oral administration [3] [%] | cone survival and cone function (cone survival) | protection against oxidative stress-induced cellular injury and death [4] | retinal pigment epithelial cell integrity, outer nuclear layer cell death, photoreceptor function [5] | ratio of NACA:NAC in the retina, rd10 mice compared with C57/B16 mice ([2]; 20 mg/mL NACA in drinking water (FIG. 5)) | mean plasma level, rd10 mice compared with wild type ([2]; 20 mg/ml NACA in drinking water (FIG. 1)) | level in vitreous humor ([2]; N=7 or 8 eyes rd10, N=10 eyes C57/B16 (FIG. 3)) | mean concentration in aqueous humor, rd10 mice compared with wild type ([2]; N=8 eyes rd10, N=10 C57/B16 (FIG. 2)) | mean NACA level in plasma compared with NAC level ([2]; both strains, 20 mg/ml NACA in drinking water, N=10 per strain (FIG. 1)) | mean retina levels ([2]; rd10 mice) | mean retina levels ([2]; wild type mice) [µg/g] | protection of scotopic and photopic b-waves and cone density (rd10 mice)
CC(=O)N[C@@H](CS)C(=O)O [NAC, N-Acetylcysteine, reference compound] | 84.55 ± 6.73 | detected in the brain | lower than in plasma | measurable in all animals treated with NACA | higher, in either type of mice, than those observed in plasma | < 10 | promotes prolonged cone survival and maintenance of cone function |  |  |  |  |  |  |  |  |  | 
N-acetylcysteine amide [NACA] | 15.07 ± 5.08 | detected in the brain | lower than in plasma | measurable in all animals treated with NACA | higher, in either type of mice, than those observed in plasma |  |  | protected against oxidative stress-induced cellular injury and death | maintained retinal pigment epithelial cell integrity, prevented outer nuclear layer cell death and rescued photoreceptor function | greater in the retina of rd10 mice than in C57/B16 mice | greater in rd10 mice than in the wild type | A similar pattern was observed | higher in rd10 mice than wild type | greater than the NAC levels in both strains of mice | approximately 6.5 μg/g | ~2.4 | more effective

From patent US20190151271A1, “COMPOSITIONS AND METHODS FOR TREATMENT OF EYE DISEASES” (The Johns Hopkins University, priority 2017, published 2019)
